Test results: US9416124B2, “Substituted 2-alkyl-1-OXO-N-phenyl-3-heteroaryl-1,2,3,4-tetrahydroisoquinoline-4-carboxamides for antimalarial therapies” (ST. JUDE CHILDREN'S RESEARCH HOSPITAL, priority 2011, dated 2016)

tested on: P. falciparum 3D7; assay: P. falciparum drug susceptibility assay (3D7); format: cell-based, Plasmodium falciparum; settings: 3D7 strain; racemate unless indicated; read-out: 3D7_EC50
Method: Parasites were grown as previously described in Mallari, J. P., Guiguemde, W. A., and Guy, R. K., Antimalarial activity of thiosemicarbazones and purine derived nitriles, Bioorg Med Chem Lett 19 (13), 3546 (2009). […] DMSO inhibitor stock solutions were pin-transferred (V&P Scientific) into the assay plate and background fluorescence was measured in both relevant channels (485 nm /535 nm, 612 nm /665 nm) in an Envision plate reader (PerkinElmer). Then 20 μl of a synchronized culture suspension (1% rings, 10% hematocrit) were added per well, thus making a final hematocrit and parasitemia of 5% and 1% respectively. Assay plates were incubated for 72 h and parasitemia was determined based on a modified protocol. (Smilkstein, M. et al., Simple and inexpensive fluorescence-based technique for high-throughput antimalarial drug screening. Antimicrob Agents Chemother 48 (5), 1803 (2004)). Briefly, 5 μl of mixed DNA dye solution in RPMI (5X SYBR Green I, 1 μM YOYO-3, 1% v/v Triton X-100, 1 mg/ml saponin) were added per well, assay plates were shaken for 30 s at 2000 rpm, incubated in the dark for 4 h, then read as previously described.

In order of falling EC50:
1. N#Cc1cc(NC(=O)C2c3ccccc3C(=O)N(CC(F)(F)F)C2c2cccnc2)ccc1F (single isomer, unassigned; isomer d) [Example 6 d-isomer, d-N-(3-cyano-4-fluoro) -1-Oxo-3-pyridin-3-yl-2-(2,2,2-trifluoro-ethyl)-1,2,3,4-tetrahydro-isoquinoline-4-carboxamide]  17 nM
2. N#Cc1cc(F)cc(NC(=O)C2c3ccccc3C(=O)N(CC(F)(F)F)C2c2cn[nH]c2)c1 (single isomer, unassigned; isomer d) [Example 20 d-isomer, d-N-(3-cyano-5-fluorophenyl)-1-oxo-3-(1H-pyrazol-4-yl)-2-(2,2,2-trifluoroethyl)-1,2,3,4-tetrahydroisoquinoline-4-carboxamide]  8 nM

same assay, conditions: Plasmodium falciparum; 3D7 strain; racemate unless indicated; read-out: 3D7_EC50

In order of rising EC50:
1. CC(C)CN1C(=O)c2cc(F)ccc2[C@H](C(=O)Nc2cc(Cl)cc(C#N)c2)[C@H]1c1cnn(C)c1 (racemic) [Example 46, N-(3-chloro-5-cyanophenyl)-7-fluoro-2-isobutyl-3-(1-methyl-1H-pyrazol-4-yl)-1-oxo-1,2,3,4-tetrahydroisoquinoline-4-carboxamide]  3 nM
2. CC(C)CN1C(=O)c2ccc(F)cc2[C@H](C(=O)Nc2cc(F)cc(C#N)c2)[C@H]1c1ccc(C#N)s1 (racemic) [Example 51, N-(3-cyano-5-fluorophenyl)-3-(5-cyanothiophen-2-yl)-6-fluoro-2-isobutyl-1-oxo-1,2,3,4-tetrahydroisoquinoline-4-carboxamide]  5 nM
3. CC(C)CN1C(=O)c2ccc(F)cc2[C@H](C(=O)Nc2cccc(C#N)c2)[C@H]1c1cnn(C)c1 (racemic) [Example 47, N-(3-cyanophenyl)-6-fluoro-2-isobutyl-3-(1-methyl-1H-pyrazol-4-yl)-1-oxo-1,2,3,4-tetrahydroisoquinoline-4-carboxamide]  7 nM
4. N#Cc1cc(NC(=O)[C@H]2c3cc(F)c(F)cc3C(=O)N(CC(F)(F)F)[C@@H]2c2cn[nH]c2)ccc1F (racemic) [Example 59]  7 nM
5. N#Cc1ccc([C@@H]2[C@@H](C(=O)Nc3ccc(F)c(C#N)c3)c3ccccc3C(=O)N2CC2CC2)s1 (racemic) [Example 54, N-(3-cyano-4-fluorophenyl)-3-(5-cyanothiophen-2-yl)-2-(cyclopropylmethyl)-1-oxo-1,2,3,4-tetrahydroisoquinoline-4-carboxamide]  11 nM
6. CC(C)CN1C(=O)c2ccccc2[C@H](C(=O)Nc2ccc(F)c(OC(F)(F)F)c2)[C@H]1c1cnn(C)c1 (racemic) [Example 33, N-(4-fluoro-3-(trifluoromethoxy)phenyl)-2-isobutyl-3-(1-methyl-1H-pyrazol-4-yl)-1-oxo-1,2,3,4-tetrahydroisoquinoline-4-carboxamide]  17 nM
7. CC(C)CN1C(=O)c2ccc(F)cc2[C@H](C(=O)Nc2cc(F)cc(C#N)c2)[C@H]1c1cnn(C)c1 (racemic) [Example 48, N-(3-cyano-5-fluorophenyl)-6-fluoro-2-isobutyl-3-(1-methyl-1H-pyrazol-4-yl)-1-oxo-1,2,3,4-tetrahydroisoquinoline-4-carboxamide]  19 nM
8. CC(C)CN1C(=O)c2cc(F)ccc2[C@H](C(=O)Nc2ccc(F)c(C#N)c2)[C@H]1c1cnn(C)c1 (racemic) [Example 45, N-(3-cyano-4-fluorophenyl)-7-fluoro-2-isobutyl-3-(1-methyl-1H-pyrazol-4-yl)-1-oxo-1,2,3,4-tetrahydroisoquinoline-4-carboxamide]  20 nM
9. O=C(Nc1ccc(F)c(OC(F)(F)F)c1)[C@H]1c2ccccc2C(=O)N(CC(F)(F)F)[C@@H]1c1cn[nH]c1 (racemic) [Example 32, N-(4-fluoro-3-(trifluoromethoxy)phenyl)-1-oxo-3-(1H-pyrazol-4-yl)-2-(2,2,2-trifluoroethyl)-1,2,3,4-tetrahydroisoquinoline-4-carboxamide]  22 nM
10. O=C(Nc1cc(F)cc(OC(F)(F)F)c1)[C@H]1c2ccccc2C(=O)N(CC(F)(F)F)[C@@H]1c1cn[nH]c1 (racemic) [Example 38, N-(3-fluoro-5-(trifluoromethoxy)phenyl)-1-oxo-3-(1H-pyrazol-4-yl)-2-(2,2,2-trifluoroethyl)-1,2,3,4-tetrahydroisoquinoline-4-carboxamide]  61 nM
11. CC(C)CN1C(=O)c2ccccc2[C@H](C(=O)Nc2ccc(F)c(OC(F)(F)F)c2)[C@H]1c1cccnc1 (racemic) [Example 35, N-(4-fluoro-3-(trifluoromethoxy)phenyl)-2-isobutyl-1-oxo-3-(pyridin-3-yl)-1,2,3,4-tetrahydroisoquinoline-4-carboxamide]  63 nM
12. O=C(Nc1ccc(F)c(OC(F)(F)F)c1)[C@H]1c2ccccc2C(=O)N(CC(F)(F)F)[C@@H]1c1cccnc1 (racemic) [Example 36, N-(4-fluoro-3-(trifluoromethoxy)phenyl)-1-oxo-3-(pyridin-3-yl)-2-(2,2,2-trifluoroethyl)-1,2,3,4-tetrahydroisoquinoline-4-carboxamide]  89 nM
13. O=C(Nc1cc(F)cc(OC(F)(F)F)c1)[C@H]1c2ccccc2C(=O)N(CC(F)(F)F)[C@@H]1c1cccnc1 (racemic) [Example 42, N-(3-fluoro-5-(trifluoromethoxy)phenyl)-1-oxo-3-(pyridin-3-yl)-2-(2,2,2-trifluoroethyl)-1,2,3,4-tetrahydroisoquinoline-4-carboxamide]  144 nM
14. COc1ccc2c(c1)C(=O)N(CC(C)C)[C@H](c1cccnc1)[C@H]2C(=O)Nc1ccc(F)c(C#N)c1 (racemic) [Example 53, N-(3-cyano-4-fluorophenyl)-2-isobutyl-7-methoxy-1-oxo-3-(pyridin-3-yl)-1,2,3,4-tetrahydroisoquinoline-4-carboxamide]  150 nM

same assay, conditions: separated enantiomers, assayed as described in 4a; listed as 2 l; read-out: Potency (nM, 3D7 strain)

`N#Cc1cc(NC(=O)C2c3ccccc3C(=O)N(CC(F)(F)F)C2c2cn[nH]c2)ccc1F` (single isomer, unassigned) [Example 2 l-isomer] gave an EC50 of 303 nM.

same assay, conditions: separated enantiomers, assayed as described in 4a; listed as 6 l; read-out: Potency (nM, 3D7 strain)

With `N#Cc1cc(NC(=O)C2c3ccccc3C(=O)N(CC(F)(F)F)C2c2cccnc2)ccc1F` (single isomer, unassigned) [Example 6 l-isomer, l-N-(3-cyano-4-fluoro)-1-Oxo-3-pyridin-3-yl-2-(2,2,2-trifluoro-ethyl)-1,2,3,4-tetrahydro isoquinoline-4-carboxamide] the EC50 was 477 nM.

same assay, conditions: separated enantiomers, assayed as described in 4a; listed as 6 d; read-out: Potency (nM, 3D7 strain)

`N#Cc1cc(NC(=O)C2c3ccccc3C(=O)N(CC(F)(F)F)C2c2cccnc2)ccc1F` (single isomer, unassigned; isomer d) [Example 6 d-isomer, d-N-(3-cyano-4-fluoro) -1-Oxo-3-pyridin-3-yl-2-(2,2,2-trifluoro-ethyl)-1,2,3,4-tetrahydro-isoquinoline-4-carboxamide] gave an EC50 of 15 nM.

same assay, conditions: separated enantiomers, assayed as described in 4a; read-out: Potency (nM, 3D7 strain)

`N#Cc1cc(F)cc(NC(=O)C2c3ccccc3C(=O)N(CC(F)(F)F)C2c2cn[nH]c2)c1` (single isomer, unassigned; isomer d) [Example 20 d-isomer, d-N-(3-cyano-5-fluorophenyl)-1-oxo-3-(1H-pyrazol-4-yl)-2-(2,2,2-trifluoroethyl)-1,2,3,4-tetrahydroisoquinoline-4-carboxamide] was tested, and the EC50 was 11 nM.
